Test results reported in article PMC11521309, “A novel 4-aminoquinoline chemotype with multistage antimalarial activity and lack of cross-resistance with PfCRT and PfMDR1 mutants” (PLOS Pathogens, 2024).
Values joined by “and” are separate entries in the source; they are usually repeats but may differ in a detail not shown here. Equal entries are not always repeated.

Legend:
P. falciparum 7G8^C350R = system: P. falciparum 7G8^C350R; parameters: key to Phenotype, 7G8^C350R: S: sensitive; R: resistant; settings: cited from earlier work
[1] = system: pool of barcoded P. falciparum lines (Dd2 and 3D7 backgrounds); assay: Resistome growth assay, pool of 51 barcoded lines; type: cell-based, Plasmodium falciparum; settings: 3 × IC50 constant, 14 days
Description: The resistome growth assay employs a parasite pool consisting of 51 barcoded lines including both Dd2 and 3D7 genetic backgrounds, with wild-type lines for both (S3 Table). Most lines used were derived from in vitro resistance selection experiments, with others having been CRISPR edited. All lines were barcoded via CRISPR editing of a 101bp barcode cassette into the non-essential pfpare locus (PF3D7_0709700). Parasites were cultured in RPMI-1640 medium supplemented with HEPES (5.94 g/L), NaHCO3 (2.1 g/L), glutamax (1×), hypoxanthine (50 mg/L), gentamycin ([…]), and AlbumaxII (5 g/L) at a […]. Parasite growth was monitored over 14 days by flow cytometry (Cytoflex, Beckman Coulter) by staining with 1× SYBR Green and 0.2 μM MitoTracker Deep Red. Parasitemia adjustments were made to maintain a healthy range of <5% parasitemia. Parasite cultures were harvested at day 14 and lysed by saponin (0.05%), with pellets washed twice with PBS. Barcodes were PCR amplified using 5 μL of parasite pellet and sequenced by Illumina amplicon sequencing.

[2] = system: P. falciparum Dd2-Polδ Flask 2; assay: ABS susceptibility after resistance selection, recrudescent line; type: cell-based, Plasmodium falciparum; settings: for % Parasite survival: Dd2 Pol D Flask 2, rep 1-5
Description: (§1) P. falciparum ABS parasites were cultured at 3% hematocrit in human O^+ RBCs in RPMI-1640 media supplemented with 25 mM HEPES, 50 mg/L hypoxanthine, 2 mM L-glutamine, 0.21% sodium bicarbonate, 0.5% (w/v) AlbuMAXII (Invitrogen) and 10 μg/mL gentamycin. Culture flasks were kept in modular incubator chambers (Billups-Rothenberg) in a 5% O2, 5% CO2, and 90% N2 atmosphere at 37°C. Synchronized ring-stage parasites were obtained by two consecutive rounds of treatment with 5% D-sorbitol in 48-hour intervals. […] This was done by exposing cultures at 1% hematocrit and 0.3% parasitemia in 96-well plates in the presence of drugs in a two-fold 10 or 12-point serial dilution in duplicate along with drug-free controls. After a 72-hour incubation, parasite survival was assessed by flow cytometry on an iQue flow cytometer (Sartorius) using SYBR Green and MitoTracker Deep Red FM (Life Technologies) as nuclear stain and vital dye, respectively. Parasite survival was determined as a percentage relative to drug-free control. IC50 values were interpolated from log concentration versus response curves in Prism 9 (GraphPad Prism Software Inc.).
(§2) Resistance to LDT-623 was assessed using single-step in vitro resistance selection protocols. […] Dd2-Pol δ is a hypermutable line with two point mutations in DNA polymerase δ that compromise its proofreading activity Cultures were monitored daily by thin blood smears until live parasites were no longer detectable. Drug-containing media was changed daily until parasites cleared, and every other day thereafter. Cultures were passaged once weekly by reducing the volume by 25% and replacing 1/3 of RBCs. Recrudescence monitoring was carried out twice a week by thin blood smears for 60 days. In the event of recrudescence, parasite susceptibility to LDT-623 was tested as described above.

[3] = system: P. falciparum Dd2-Polδ Flask 1; assay: as above; type: cell-based, Plasmodium falciparum; settings: for % Parasite survival: Dd2 Pol D Flask 1, rep 1-5
Description: as §1, §2

[4] = system: P. falciparum Dd2-Polδ parent culture; assay: ABS susceptibility after resistance selection, parental line; type: cell-based, Plasmodium falciparum; settings: for % Parasite survival: Dd2 Pol D parent, rep 1-5
Description: as §1, §2

P. falciparum NF10^NF = assay: ABS susceptibility, pfmdr1-modified line; type: cell-based; settings: Plasmodium falciparum
Description: as §1

P. falciparum FCB^KD1 = assay: ABS susceptibility, pfmdr1-modified line; type: cell-based; settings: Plasmodium falciparum
Description: as §1

P. falciparum NF10^YF = assay: ABS susceptibility, pfmdr1-modified line; type: cell-based; settings: Plasmodium falciparum
Description: as §1

P. falciparum FCB = assay: ABS susceptibility, pfmdr1-modified line; type: cell-based; settings: Plasmodium falciparum
Description: as §1

Huh-7 cells = assay: Host cell confluency, Alamar Blue; type: cell-based, human
Description: (§3) In vitro inhibition of Plasmodium liver stage infection was assessed using bioluminescence data from Huh-7 cells infected with a firefly-luciferase-expressing P. berghei line, PbGFP-Luccon, in the presence of various compound concentrations. […] One day before drug treatment and infection, 10^4 Huh-7 cells/well were seeded in 96-well plates. The medium was then replaced by an infection medium (culture medium supplemented with 50 μg/mL gentamycin and 0.8 μg/mL amphotericin B) containing desired concentrations of test compounds. Fresh sporozoites recovered from salivary glands of infected female Anopheles stephensi mosquitoes were added to seeded Huh-7 cells at a 1:1 proportion, followed by centrifugation at 1700g for 5 minutes and incubation for 46 hours at 37°C under 5% CO2. Compound toxicity against Huh-7 cells was assessed by measuring […] using the Alamar Blue assay (Invitrogen). IC50 values were calculated using nonlinear regression analysis (GraphPad Prism version 9).

[5] = Host cell confluency, Alamar Blue; type: cell-based, human; settings: human, pH 7; maximum concentration of 4 μM; read-out: Huh-7 cell viability
Description: as §3

For `CCN(CC)CCCC(C)Nc1ccnc2cc(Cl)ccc12` (centres unmarked) [CQ, chloroquine], which IC50 (P. falciparum 7G8^C350R; 7G8C350R, mean ± SEM, ref 3 (Kim et al., 2019)) is on record?
The IC50 was 6.9 ± 0.3 nM.

What about the “Phenotype, 7G8^C350R” value (P. falciparum 7G8^C350R; ref [19],[20],[51]) of the same compound?
Its value is “S”.

For `COc1cc2nccc(Nc3cccc(Oc4ccccc4)c3)c2cc1OC` [LDT-623], which “growth recovery of barcoded pool” value [1] is on record?
The value was “no growth recovery”.

And the “% Parasite survival” value ([2]; 0.09 uM)?
Its value is 88.00% and 80.84% and 100.00% and 86.03%.

And the “% Parasite survival” value ([2]; 0.19 uM)?
The value was 82.04% and 70.05% and 89.31% and 86.03% and 100.00%.

What about the “% Parasite survival” value ([2]; 0.78 uM) of the same compound?
The value was 0.00% and 7.11% and 0.21%.

What about the “% Parasite survival” value ([2]; 1.56 uM) of the same compound?
The value was 1.80% and 2.03% and 1.07% and 0.00%.

And the “% Parasite survival” value ([2]; 3.12 uM)?
The value was 7.60% and 5.20% and 3.53% and 0.39% and 7.52%.

And the “% Parasite survival” value ([2]; 25 uM)?
The value was 0.00% and 7.74% and 3.09%.

And the “% Parasite survival” value ([2]; 50 uM)?
Its value is 0.00% and 5.80%.

And the “mean AUC of survival curve” value ([2]; recrudescent parasites, Flask 2)?
The value was 22.3.

And the “% Parasite survival” value ([3]; 0.09 uM)?
The value was 100.00% and 83.53% and 90.04% and 99.83%.

What about the “% Parasite survival” value ([3]; 0.19 uM) of the same compound?
Its value is 92.44% and 73.57% and 80.08% and 80.97% and 100.00%.

And the “% Parasite survival” value ([3]; 0.78 uM)?
The value was 0.00%.

What about the “% Parasite survival” value ([3]; 1.56 uM) of the same compound?
Its value is 0.00% and 1.04%.

And the “% Parasite survival” value ([3]; 50 uM)?
Its value is 0.00% and 0.35%.

And the “mean AUC of survival curve” value ([3]; recrudescent parasites, Flask 1)?
Its value is 53.8.

What about the “mean AUC of survival curve” value ([4]; Dd2-Polδ parent culture) of the same compound?
The value was 35.4.

What about the “% Parasite survival” value ([4]; 0.09 uM) of the same compound?
Its value is 76.35% and 85.80% and 91.78% and 97.25%.

And the “% Parasite survival” value ([4]; 0.19 uM)?
The value was 89.20% and 72.57% and 70.57% and 79.41% and 83.99%.

And the “% Parasite survival” value ([4]; 25 uM)?
Its value is 0.00% and 0.89%.

What about the “% Parasite survival” value ([4]; 50 uM) of the same compound?
The value was 0.00% and 1.83%.

And the IC50 (P. falciparum NF10^NF; read-out: IC50 NF10NF)?
The IC50 was 400 ± 28.2 nM.

What about the IC90 (P. falciparum NF10^NF; read-out: IC90 NF10NF) of the same compound?
Its IC90 is 580 ± 13 nM.

And the IC50 (P. falciparum FCB^KD1; read-out: IC50 FCBKD1)?
The IC50 was 488 ± 12 nM.

And the IC90 (P. falciparum FCB^KD1; read-out: IC90 FCBKD1)?
Its IC90 is 7650 ± 1120 nM.

What about the IC50 (P. falciparum NF10^YF; read-out: IC50 NF10YF) of the same compound?
Its IC50 is 360.2 ± 1.9 nM.

And the IC90 (P. falciparum NF10^YF; read-out: IC90 NF10YF)?
The IC90 was 562.9 ± 2.8 nM.

What about the IC50 (P. falciparum FCB; read-out: IC50 FCB) of the same compound?
Its IC50 is 414 ± 12.9 nM.

What about the IC90 (P. falciparum FCB; read-out: IC90 FCB) of the same compound?
Its IC90 is 4430 ± 164 nM.

And the “% Confluency” value (Huh-7 cells; 0.01 µM, Average)?
The value was 101.66%.

And the “% Confluency” value (Huh-7 cells; 0.01 µM, Rep #1, Rep #2 singly, DMSO = 100)?
The value was 99.85% and 103.48%.

What about the “% Confluency” value (Huh-7 cells; 0.10 µM, Average) of the same compound?
Its value is 101.70%.

What about the “% Confluency” value (Huh-7 cells; 0.10 µM, Rep #1, Rep #2 singly, DMSO = 100) of the same compound?
Its value is 101.55% and 101.85%.

And the “% Confluency” value (Huh-7 cells; 0.50 µM, Average)?
The value was 106.57%.

What about the “% Confluency” value (Huh-7 cells; 0.50 µM, Rep #1, Rep #2 singly, DMSO = 100) of the same compound?
Its value is 104.91% and 108.24%.

And the “% Confluency” value (Huh-7 cells; 1.00 µM, Average)?
Its value is 99.74%.

What about the “% Confluency” value (Huh-7 cells; 1.00 µM, Rep #1, Rep #2 singly, DMSO = 100) of the same compound?
Its value is 99.78% and 99.70%.

What about the “% Confluency” value (Huh-7 cells; 1.50 µM, Average) of the same compound?
The value was 103.34%.

And the “% Confluency” value (Huh-7 cells; 1.50 µM, Rep #2 only, DMSO = 100)?
The value was 103.34%.

And the “% Confluency” value (Huh-7 cells; 2.00 µM, Average)?
The value was 99.65%.

And the “% Confluency” value (Huh-7 cells; 2.00 µM, Rep #1, Rep #2 singly, DMSO = 100)?
Its value is 99.68% and 99.63%.

What about the “% Confluency” value (Huh-7 cells; 3.00 µM, Average) of the same compound?
Its value is 92.74%.

What about the “% Confluency” value (Huh-7 cells; 3.00 µM, Rep #1, Rep #2 singly, DMSO = 100) of the same compound?
Its value is 93.69% and 91.80%.

And the “% Confluency” value (Huh-7 cells; 4.00 µM, Average)?
Its value is 86.71%.

And the “% Confluency” value (Huh-7 cells; 4.00 µM, Rep #1 only, DMSO = 100)?
Its value is 86.71%.

And the viability at 46 h, 4 µM [5]?
Its viability at 46 h, 4 µM is over 86%.
